# Data as given in article PMC4389443 (Respiratory Research, 2015).
# Entries after “also recorded” stand apart in the source; their conditions may differ.
# How the values were obtained:
# [1] = target: T1, VAP-1/SSAO in gonadal fat tissue homogenate (Oryctolagus cuniculus, UniProt A0A5F9CS97); test: SSAO activity, gonadal fat tissue homogenate; format: biochemical; settings: rabbit
# T1 sequence (A0A5F9CS97 1-763): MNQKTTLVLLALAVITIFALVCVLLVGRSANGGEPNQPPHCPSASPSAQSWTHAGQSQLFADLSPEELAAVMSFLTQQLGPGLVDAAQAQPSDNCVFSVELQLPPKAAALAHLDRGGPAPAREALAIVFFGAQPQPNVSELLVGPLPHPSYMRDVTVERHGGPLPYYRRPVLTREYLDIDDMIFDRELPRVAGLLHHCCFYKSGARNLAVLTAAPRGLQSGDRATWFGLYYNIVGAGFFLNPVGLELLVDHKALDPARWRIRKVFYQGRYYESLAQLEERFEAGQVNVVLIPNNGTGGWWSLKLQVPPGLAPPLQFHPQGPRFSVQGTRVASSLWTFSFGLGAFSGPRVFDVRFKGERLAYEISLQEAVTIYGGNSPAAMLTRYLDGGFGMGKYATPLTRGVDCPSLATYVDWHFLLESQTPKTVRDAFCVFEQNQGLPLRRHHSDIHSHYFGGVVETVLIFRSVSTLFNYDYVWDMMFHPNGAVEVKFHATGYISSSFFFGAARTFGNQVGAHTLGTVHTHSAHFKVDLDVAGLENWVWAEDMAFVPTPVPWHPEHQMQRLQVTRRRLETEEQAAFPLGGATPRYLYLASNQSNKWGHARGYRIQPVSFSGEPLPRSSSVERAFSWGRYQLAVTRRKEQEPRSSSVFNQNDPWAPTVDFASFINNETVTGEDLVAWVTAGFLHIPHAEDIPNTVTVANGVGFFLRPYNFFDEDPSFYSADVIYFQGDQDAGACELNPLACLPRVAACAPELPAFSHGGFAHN
# Plasma stability [2] = format: in vitro ADME; settings: dog plasma, 1 hour incubation
# Swiss mice = test: LPS airway inflammation, 24 hour time point; format: in vivo, mouse; settings: 24 hours after LPS
# Protocol: Given the short half-life of PXS-4728, a second dose was administered to ensure that newly synthesized SSAO would also be blocked.
# HepG2 cells = test: Cell toxicity in HepG2 cells; format: cell-based; settings: highest concentration tested 100 μM
# Plasma stability [3] = format: in vitro ADME; settings: rat plasma, 1 hour incubation
# BALB/c mice [4] = test: CXCL1/KC induced cremaster inflammation, intravital microscopy; format: in vivo, mouse; settings: 6 mg.kg^−1 oral, 1 hour prior to rCXCL1
# Protocol: BALB/c mice were anesthetized and 500 ng of murine rCXCL1 in 0.2 ml of saline was administered locally by s.c. injection beneath the right scrotal skin using a 30-G needle, 2 hours before exteriorization. The left cremaster was then prepared for intravital microscopy, as previously described. Briefly, an incision was made in the scrotal skin to expose the left cremaster muscle, which was then carefully removed from the associated fascia. A lengthwise incision was made on the ventral surface of the cremaster muscle using a cautery. The testicle and the epididymis were separated from the underlying muscle and were moved into the abdominal cavity. The muscle was then spread out over an optically clear viewing pedestal and was secured along the edges with a 4–0 suture. […] A video camera (CDD; Sony) was used to project the images onto a monitor, and the images were recorded for playback analysis using a conventional DVD. […] The number of rolling and adherent leukocytes was determined offline during video playback analysis. […] The flux of rolling cells was measured as the number of rolling cells passing by a given point in the venule per minute. A leukocyte was considered to be adherent if it remained stationary for at least 30 s, and total leukocyte adhesion was quantified as the number of adherent cells within a 100 μm length of venule.
# [5] = tested on: over 100 different macromolecular targets; test: Off-target activity, Ricerca lead seeker selectivity panel; settings: other amine oxidases or over 100 different macromolecular targets
# [6] = target: T2, VAP-1/SSAO in gonadal fat tissue homogenate (Canis lupus familiaris, UniProt A0A8I3MYY3); test: SSAO activity, gonadal fat tissue homogenate; format: biochemical; settings: dog
# T2 sequence (A0A8I3MYY3 1-763): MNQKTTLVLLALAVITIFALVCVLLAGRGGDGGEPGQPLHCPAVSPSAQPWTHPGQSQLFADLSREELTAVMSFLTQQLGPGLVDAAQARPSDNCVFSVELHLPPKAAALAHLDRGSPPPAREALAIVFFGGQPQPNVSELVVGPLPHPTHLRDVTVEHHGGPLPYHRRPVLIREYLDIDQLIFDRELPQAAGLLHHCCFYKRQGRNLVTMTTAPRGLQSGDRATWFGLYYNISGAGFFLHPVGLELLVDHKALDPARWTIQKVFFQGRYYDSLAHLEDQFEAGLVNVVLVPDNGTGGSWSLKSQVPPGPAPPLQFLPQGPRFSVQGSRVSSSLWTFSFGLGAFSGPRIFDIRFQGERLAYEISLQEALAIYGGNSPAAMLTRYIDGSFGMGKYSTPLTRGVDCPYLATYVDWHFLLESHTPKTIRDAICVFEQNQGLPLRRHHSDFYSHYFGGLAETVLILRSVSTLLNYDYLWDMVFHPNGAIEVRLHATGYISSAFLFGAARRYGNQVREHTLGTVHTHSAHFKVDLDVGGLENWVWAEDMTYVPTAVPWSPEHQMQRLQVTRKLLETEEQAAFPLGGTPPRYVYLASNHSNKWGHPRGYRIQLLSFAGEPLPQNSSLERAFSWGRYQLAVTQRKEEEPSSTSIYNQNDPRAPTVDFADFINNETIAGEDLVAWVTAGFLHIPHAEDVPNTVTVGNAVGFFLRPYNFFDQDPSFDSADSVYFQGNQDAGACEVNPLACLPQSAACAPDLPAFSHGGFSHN
# BALB/c mice [7] = test: LPS airway inflammation, 6 hour time point; settings: 6 hours after LPS
# [8] = 4 mg/kg pre-treatment, 6 mg/kg at 6 hours
smiles,measurement,setting,value
CC(C)(C)NC(=O)c1ccc(OC/C(=C/F)CN)cc1 [PXS-4728A],IC50,[1],< 10 nM
same,"Plasma stability, remaining",Plasma stability [2],> 90%
same,Circulating neutrophils,Swiss mice,had no effect
same,Total cells in blood,Swiss mice,had no effect
same,Influx of neutrophils in BALF,Swiss mice; [8],reduced
same,Influx of total cells in BALF,Swiss mice; [8],reduced
same,Cell toxicity,HepG2 cells,does not induce cell toxicity
same,"Plasma stability, remaining",Plasma stability [3],> 90%
same,CXCL1/KC increased number of adhering leukocytes,BALB/c mice [4],abolished
same,CXCL1/KC increased number of rolling leukocytes,BALB/c mice [4],abolished
same,Off-target activity,[5],does not have any significant off-target activity
same,IC50,[6],< 10 nM
same,Influx of neutrophils in BALF,"BALB/c mice [7]; PXS-4728A 0.2 or 2 mg.kg^−1, dexamethasone 10 mg.kg^−1, oral 1 hour prior",dampened migration significantly; also recorded: concentration-dependently reduced
same,Influx of total cells in BALF,BALB/c mice [7]; PXS-4728A 0.2 or 2 mg.kg^−1 oral 1 hour prior,concentration-dependently reduced
